{"source": "patent US20140235542A1", "about": "“MODULAR, BIOACTIVE PEPTIDES FOR BINDING NATIVE BONE AND IMPROVING BONE GRAFT OSTEOINDUCTIVITY” (WISCONSIN ALUMNI RESEARCH FOUNDATION, priority 2013, published 2014)", "key": {"[1]": {"assay": "Binding of rhodamine-labeled peptide to cortical bone", "set-up": "species or system sheep", "method": "(§1) The native bone used were harvested from sheep tibia and bovine sternum. Cortical (compact) bone slices were collected from sheep tibia with periosteum removed, and trabecular (cancellous, spongy) bone cores were drilled out from bovine sternum under sterile conditions.\nThe peptide binding to native bones was tested in three different experiments. In the first experiment, the cortical bone slices were incubated in modular peptide solution (0.5 mL, PBS) with concentrations of 50, 100, 200 and 300 μg/mL. The incubation was continued in a static condition for a period of 0.5, 1, 2 and 3 hours. For another experiment, the trabecular bone cores were placed in the chamber of bone bioreactor where the peptide solution prepared in DMEM (100 μg/mL, 6.5 mL) was continuously circulated through the chamber for a time period of 2, 4, 6, 8 and 10 hours. In the last experiment, mBMP was bound in a spatially controlled manner by dip-coating, spotting or writing with mBMP solution on native bone tissues. Following each experiment, the bones were rinsed with PBS to remove unbound peptide and their fluorescence images were captured using a Typhoon fluorescence scanner (GE healthcare) or a Nikon Eclipse Ti inverted microscope. To quantify the fluorescence intensity, the images were converted into 8-bit using ImageJ to present the intensity level of each pixel in the range of 0 to 255. The mean pixel intensity of a selected region of interest was considered to be proportional to the amount of peptide bound.\nTo examine mBMP binding to cortical bone without periosteum (ca. 4 mm×7 mm×1.5 mm) from the shaft of sheep tibia, the bone tissue was incubated in mBMP solution prepared in phosphate buffered saline (PBS). The binding of mBMP was concentration-dependent for each incubation time tested (FIGS. 12 and 13A). The quantity of mBMP binding was proportional to the solution concentration, which was clearly observed through all concentrations at 0.5 hour. However, this dependence was not apparent at higher concentrations at later time points. […] The insignificant dependence on the incubation time is likely attributed to the rapid binding of mBMP to native bone tissue."}, "[2]": {"assay": "Binding of rhodamine-labeled peptide to living trabecular bone cores in a bone bioreactor", "set-up": "species or system bovine", "settings": "100 μg/mL in DMEM circulated, 2-10 hours", "method": "as §1\nThe peptide binding to native bones was tested in three different experiments. In the first experiment, the cortical bone slices were incubated in modular peptide solution (0.5 mL, PBS) with concentrations of 50, 100, 200 and 300 μg/mL. The incubation was continued in a static condition for a period of 0.5, 1, 2 and 3 hours. […] Following each experiment, the bones were rinsed with PBS to remove unbound peptide and their fluorescence images were captured using a Typhoon fluorescence scanner (GE healthcare) or a Nikon Eclipse Ti inverted microscope. To quantify the fluorescence intensity, the images were converted into 8-bit using ImageJ to present the intensity level of each pixel in the range of 0 to 255. […]\nmBMP binding to living trabecular bone cores (1 cm in diameter and 0.5 cm in thickness) harvested from bovine sternum was assessed. […] After incubating for various time periods, the binding was measured in terms of fluorescence intensity from rhodamine labeled mBMP. […]"}}, "note": "Square brackets hold non-standard residues; d marks the D form. Ends that are not written are not given here. Gla = N[C@@H](CC(C(=O)O)C(=O)O)C(=O)O"}
{"substance": "KIPKASSVPTELSAISTLYLAAAAγEPRRγEVAγEL (KIPKASSVPTELSAISTLYLAAAA[Gla]PRR[Gla]VA[Gla]L-NH2; N-terminus assumed; SMILES CC[C@H](C)[C@H](NC(=O)[C@H](C)NC(=O)[C@H](CO)NC(=O)[C@H](CC(C)C)NC(=O)[C@H](CCC(=O)O)NC(=O)[C@@H](NC(=O)[C@@H]1CCCN1C(=O)[C@@H](NC(=O)[C@H](CO)NC(=O)[C@H](CO)NC(=O)[C@H](C)NC(=O)[C@H](CCCCN)NC(=O)[C@@H]1CCCN1C(=O)[C@@H](NC(=O)[C@@H](N)CCCCN)[C@@H](C)CC)C(C)C)[C@@H](C)O)C(=O)N[C@@H](CO)C(=O)N[C@H](C(=O)N[C@@H](CC(C)C)C(=O)N[C@@H](Cc1ccc(O)cc1)C(=O)N[C@@H](CC(C)C)C(=O)N[C@@H](C)C(=O)N[C@@H](C)C(=O)N[C@@H](C)C(=O)N[C@@H](C)C(=O)N[C@@H](CC(C(=O)O)C(=O)O)C(=O)N1CCC[C@H]1C(=O)N[C@@H](CCCNC(=N)N)C(=O)N[C@@H](CCCNC(=N)N)C(=O)N[C@@H](CC(C(=O)O)C(=O)O)C(=O)N[C@H](C(=O)N[C@@H](C)C(=O)N[C@@H](CC(C(=O)O)C(=O)O)C(=O)N[C@@H](CC(C)C)C(N)=O)C(C)C)[C@@H](C)O) [eBGa3]", "values": [{"measurement": "dependence of binding to cortical bone on concentration and incubation time", "setting": "[1]; 50-300 μg/mL in PBS, 0.5-3 hours", "result": "concentration-dependent"}, {"measurement": "binding to bone surface after dip-coating", "setting": "[1]; bone piece dip-coated in peptide solution", "result": "significant amount of mBMP was found to bind"}, {"measurement": "fluorescence intensity of treated bone compared with rhodamine-treated group", "setting": "[1]; rhodamine-labeled peptide, cortical bone", "result": "higher fluorescence intensity"}, {"measurement": "incubation time at which binding reached a plateau", "setting": "[2]", "result": 4, "unit": "h"}]}
